In publication PMC7758046, “Novel piperazine–chalcone hybrids and related pyrazoline analogues targeting VEGFR-2 kinase; design, synthesis, molecular docking studies, and anticancer evaluation” (Journal of Enzyme Inhibition and Medicinal Chemistry, 2020):

Structure (SMILES)	melting point
N#Cc1ccc(C=CC(=O)c2ccc(N3CCNCC3)cc2)cc1 [Vb, 4-(3-Oxo-3–(4-(piperazin-1-yl)phenyl)prop-1-enyl)benzonitrile]	170 °C
O=C(C=Cc1ccccc1F)c1ccc(N2CCNCC2)cc1 [Vc, 3-(2-Fluorophenyl)-1-(4-(piperazin-1-yl)phenyl)prop-2-en-1-one]	176 °C
N#Cc1ccccc1C=CC(=O)c1ccc(N2CCNCC2)cc1 [Va, 2-(3-Oxo-3-(4-(piperazin-1-yl)phenyl)prop-1-enyl)benzonitrile]	150 °C

The remaining lines, values ahead:

melting point	Structure (SMILES)
185 °C	O=C(C=Cc1cc([N+](=O)[O-])ccc1O)c1ccc(N2CCNCC2)cc1 [Vg, 3-(2-Hydroxy-5-nitrophenyl)-1-(4-(piperazin-1-yl)phenyl)prop-2-en-1-one]
190 °C	O=C(C=Cc1ccco1)c1ccc(N2CCNCC2)cc1 [Vh, 3-(Furan-2-yl)-1-(4-(piperazin-1-yl)phenyl)prop-2-en-1-one]
